17 molecules from patent US11584714B2 (priority 2018, dated 2023) can be followed below.

Structures can show the parent of a compound that is named as a salt. Where two headings read alike, the source gives them in different places.

Assay type in all cases: biochemical
One experiment deals with MASP-2 (CCP1-CCP2-SP) (Homo sapiens (Human), UniProt O00187). The experiment in a line: biochemical. As to conditions: for MASP-2 vs. thrombin selectivity: selectivity for MASP-2 inhibition versus thrombin.
The target of the next experiment is mMASP-2 (Mus musculus (Mouse), UniProt Q91WP0). The experiment in a line: Enzymatic inhibition of mMASP-2.
In another experiment the target is human α-thrombin (Homo sapiens (Human), UniProt P00734). The experiment in a line: Enzymatic assay for thrombin (Boc-VPR-AMC substrate).
A further experiment relates to Lectin Pathway. The experiment in a line: Lectin pathway activation assay in human serum (mannan-coated ELISA, C3c detection). To be noted: 1% human serum.

Chain of MASP-2 (CCP1-CCP2-SP) (O00187 445-686): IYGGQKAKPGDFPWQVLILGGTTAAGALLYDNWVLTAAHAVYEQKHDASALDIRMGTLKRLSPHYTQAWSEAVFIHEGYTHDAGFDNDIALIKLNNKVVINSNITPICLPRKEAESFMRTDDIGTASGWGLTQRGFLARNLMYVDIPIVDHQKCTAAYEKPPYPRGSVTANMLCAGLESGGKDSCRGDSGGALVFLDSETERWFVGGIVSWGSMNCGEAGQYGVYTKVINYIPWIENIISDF
Chain of mMASP-2 (Q91WP0 20-685): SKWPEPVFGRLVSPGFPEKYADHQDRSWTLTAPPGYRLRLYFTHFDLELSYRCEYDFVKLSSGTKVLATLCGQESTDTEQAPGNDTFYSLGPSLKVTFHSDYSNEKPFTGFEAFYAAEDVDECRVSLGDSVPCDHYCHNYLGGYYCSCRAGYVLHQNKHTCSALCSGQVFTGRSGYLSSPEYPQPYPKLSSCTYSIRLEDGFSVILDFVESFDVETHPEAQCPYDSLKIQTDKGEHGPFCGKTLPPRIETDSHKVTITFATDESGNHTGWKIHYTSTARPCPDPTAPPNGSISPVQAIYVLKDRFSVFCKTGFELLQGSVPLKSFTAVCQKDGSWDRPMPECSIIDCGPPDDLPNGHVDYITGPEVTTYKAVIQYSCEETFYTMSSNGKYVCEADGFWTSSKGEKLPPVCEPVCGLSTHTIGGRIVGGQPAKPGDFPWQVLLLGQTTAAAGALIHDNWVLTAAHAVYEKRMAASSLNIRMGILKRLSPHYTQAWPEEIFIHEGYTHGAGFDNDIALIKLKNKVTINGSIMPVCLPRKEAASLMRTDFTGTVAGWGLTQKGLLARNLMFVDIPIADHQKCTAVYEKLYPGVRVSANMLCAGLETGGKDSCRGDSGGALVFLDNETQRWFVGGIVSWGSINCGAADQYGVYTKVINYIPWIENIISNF

One may read the Ki as the equilibrium dissociation constant of an inhibitor or competing ligand from its target. As a reminder, the IC50 is the concentration at which inhibition is half-maximal. Low readings indicate greater potency, high ones weaker potency. For `C[C@H](NC(=O)[C@H]1C[C@H](Cc2ccccc2)CN1)C(=O)NCc1cc(Cl)ccc1-n1cnnn1` [compound 1371, (2R,4S)-4-Benzyl-N-((S)-1-((5-chloro-2-(1H-tetrazol-1-yl)benzyl)amino)-1-oxopropan-2-yl)pyrrolidine-2-carboxamide Hydrochloride], the Ki on MASP-2 (CCP1-CCP2-SP) (read-out: MASP-2 Ki) was below 500 nM; on mMASP-2 (read-out: mMASP-2 Ki), 500 to 2500 nM; on human α-thrombin (read-out: Thrombin Ki) it was below 0.5 µM. Moreover, the “MASP-2 vs. thrombin selectivity” value on MASP-2 (CCP1-CCP2-SP) is on record as “−− (<1.0-fold)”. In the experiment with Lectin Pathway, the IC50 fell in the range of 50 to 500 nM.
In the case of `Cc1nc(N)ccc1CNC(=O)[C@H](C)NC(=O)[C@H]1C[C@H](Cc2ccccc2Br)CN1` [compound 1372, (2R,4S)—N—((S)-1-(((6-Amino-2-methylpyridin-3-yl)methyl)amino)-1-oxopropan-2-yl)-4-(2-bromobenzyl)pyrrolidine-2-carboxamide Di-trifluoroacetate salt], the Ki was below 500 nM at MASP-2 (CCP1-CCP2-SP) (read-out: MASP-2 Ki), below 500 nM on mMASP-2 (read-out: mMASP-2 Ki) and below 0.5 µM on human α-thrombin (read-out: Thrombin Ki). The “MASP-2 vs. thrombin selectivity” value on MASP-2 (CCP1-CCP2-SP) is given as “** (≥5.0 to <25-fold)”. In the experiment on Lectin Pathway, this molecule had an IC50 of 50 to 500 nM.
`Cc1nc(N)ccc1CNC(=O)[C@H](C)NC(=O)[C@@H](CCc1ccccc1)NCc1ccc(Cl)cc1` [compound 1375, (R)—N—((S)-1-(((6-Amino-2-methylpyridin-3-yl)methyl)amino)-1-oxopropan-2-yl)-2-((4-chlorobenzyl)amino)-4-phenylbutanamide]: the Ki on MASP-2 (CCP1-CCP2-SP) lay in the range of 500 to 2500 nM; at mMASP-2 (read-out: mMASP-2 Ki), 10000 to 25000 nM; on human α-thrombin (Thrombin Ki (μM)) it was 10 to 25 µM. The “MASP-2 vs. thrombin selectivity” value on MASP-2 (CCP1-CCP2-SP) is given as “** (≥5.0 to <25-fold)”. Besides, the IC50 in the experiment on Lectin Pathway lay in the range of 500 to 5000 nM.
Regarding `C[C@H](NC(=O)[C@H]1C[C@H](Cc2ccc(C3CCC3)cc2)CN1)C(=O)NCc1cnc2[nH]cc(Cl)c2c1` [compound 1378, (2R,4S)—N—((S)-1-(((3-Chloro-1H-pyrrolo[2,3-b]pyridin-5-yl)methyl)amino)-1-oxopropan-2-yl)-4-(4-cyclobutylbenzyl)pyrrolidine-2-carboxamide Di-trifluoroacetate salt], the Ki is below 500 nM at MASP-2 (CCP1-CCP2-SP) (read-out: MASP-2 Ki), below 500 nM at mMASP-2 (read-out: mMASP-2 Ki) and 0.5 to 2.5 µM on human α-thrombin (Thrombin Ki (μM)). The “MASP-2 vs. thrombin selectivity” value on MASP-2 (CCP1-CCP2-SP) was “* (≥1.0 to <5.0-fold)”. The IC50 with Lectin Pathway lay in the range of 500 to 5000 nM.
Turning to `Cc1nc(N)ccc1CNC(=O)[C@H](C)NC(=O)[C@H]1C[C@H](Cc2ccc(C(C)(C)C)cc2)CN1` [compound 1380, (2R,4S)—N—((S)-1-(((6-Amino-2-methylpyridin-3-yl)methyl)amino)-1-oxopropan-2-yl)-4-(4-(tert-butyl)benzyl)pyrrolidine-2-carboxamide Dihydrochloride], the Ki on MASP-2 (CCP1-CCP2-SP) was 500 to 2500 nM; on mMASP-2 (read-out: mMASP-2 Ki), below 500 nM; at human α-thrombin (read-out: Thrombin Ki) it was above 25 µM. For the same molecule, on MASP-2 (CCP1-CCP2-SP), the “MASP-2 vs. thrombin selectivity” value is “*** (≥25 to <100-fold)”. This molecule also gave an IC50 in the experiment on Lectin Pathway above 50000 nM.
`Cc1nc(N)ccc1CNC(=O)[C@H](CCC(N)=O)NC(=O)[C@H]1C[C@H](Cc2ccccc2)CN1` [compound 1382, (S)—NI-((6-Amino-2-methylpyridin-3-yl)methyl)-2-((2R,4S)-4-benzylpyrrolidine-2-carboxamido)pentanediamide Di-trifluoroacetate salt]: the figures for the Ki at MASP-2 (CCP1-CCP2-SP) (read-out: MASP-2 Ki), on mMASP-2 and on human α-thrombin (read-out: Thrombin Ki) were below 500 nM, 2500 to 10000 nM and above 25 µM, respectively. Further, the “MASP-2 vs. thrombin selectivity” value at MASP-2 (CCP1-CCP2-SP) was “*** (≥25 to <100-fold)”. Also, in the experiment with Lectin Pathway, the IC50 fell in the range of 5000 to 50000 nM.
Take `Cc1cc(C)c(O)c(CNC(=O)[C@H](C)NC(=O)[C@H]2C[C@H](c3ccccc3)CN2)c1` [compound 1383, (2R,4R)—N—((S)-1-((2-Hydroxy-3,5-dimethylbenzyl)amino)-1-oxopropan-2-yl)-4-phenylpyrrolidine-2-carboxamide Hydrochloride]: the Ki is 500 to 2500 nM on MASP-2 (CCP1-CCP2-SP), 2500 to 10000 nM at mMASP-2 (read-out: mMASP-2 Ki) and above 25 µM at human α-thrombin (read-out: Thrombin Ki). The same molecule displayed an IC50 with Lectin Pathway of 5000 to 50000 nM.
Consider `Cc1nc(N)ccc1CNC(=O)[C@H](C)NC(=O)[C@H]1Cc2c([nH]c3ccccc23)CN1` [compound 1389, (R)—N—((S)-1-(((6-Amino-2-methylpyridin-3-yl)methyl)amino)-1-oxopropan-2-yl)-2,3,4,9-tetrahydro-1H-pyrido[3,4-b]indole-3-carboxamide Hydrochloride], for which the Ki at MASP-2 (CCP1-CCP2-SP) (read-out: MASP-2 Ki) is below 500 nM; at mMASP-2 (read-out: mMASP-2 Ki), 2500 to 10000 nM; at human α-thrombin (read-out: Thrombin Ki), above 25 µM. Also, the “MASP-2 vs. thrombin selectivity” value at MASP-2 (CCP1-CCP2-SP) is reported as “**** (≥100-fold)”. The IC50 in the experiment on Lectin Pathway lay in the range of 500 to 5000 nM.
On to `C[C@H](NC(=O)[C@H]1C[C@H](Cc2ccc3ccccc3c2)CN1)C(=O)NCc1cnc2[nH]cc(Cl)c2c1` [compound 1392, (2R,4S)—N—((S)-1-(((3-Chloro-1H-pyrrolo[2,3-b]pyridin-5-yl)methyl)amino)-1-oxopropan-2-yl)-4-(naphthalen-2-ylmethyl)pyrrolidine-2-carboxamide Di-Trifluoroacetate salt], for which the Ki is below 500 nM on MASP-2 (CCP1-CCP2-SP) (read-out: MASP-2 Ki), below 500 nM at mMASP-2 (read-out: mMASP-2 Ki) and 0.5 to 2.5 µM on human α-thrombin (Thrombin Ki (μM)). The “MASP-2 vs. thrombin selectivity” value at MASP-2 (CCP1-CCP2-SP) is reported as “*** (≥25 to <100-fold)”. The same molecule registered an IC50 in the experiment with Lectin Pathway of 500 to 5000 nM.
On to `Cc1nc(N)ccc1CNC(=O)[C@H](C)NC(=O)[C@H]1C[C@H](Cc2ccc(-c3ccc(F)cc3C(N)=O)cc2)CN1` [compound 1397, (2R,4S)—N—((S)-1-(((6-amino-2-methylpyridin-3-yl)methyl)amino)-1-oxopropan-2-yl)-4-((2′-carbamoyl-4′-fluoro-[1,1′-biphenyl]-4-yl)methyl)pyrrolidine-2-carboxamide Di-trifluoroacetate salt], for which the Ki at MASP-2 (CCP1-CCP2-SP) (read-out: MASP-2 Ki) is below 500 nM; at mMASP-2 (read-out: mMASP-2 Ki), below 500 nM; on human α-thrombin (read-out: Thrombin Ki) it was above 25 µM. In addition, the “MASP-2 vs. thrombin selectivity” value at MASP-2 (CCP1-CCP2-SP) is “**** (≥100-fold)”. The same molecule showed a half-inhibitory concentration (IC50) in the experiment on Lectin Pathway of 50 to 500 nM.
Turning to `Cc1nc(N)ccc1CNC(=O)[C@H](C)NC(=O)[C@H]1Cc2c(sc3ccccc23)CN1` [compound 1400, (R)—N—((S)-1-(((6-Amino-2-methylpyridin-3-yl)methyl)amino)-1-oxopropan-2-yl)-1,2,3,4-tetrahydrobenzo[4,5]thieno[2,3-c]pyridine-3-carboxamide Hydrochloride], the Ki on MASP-2 (CCP1-CCP2-SP) (read-out: MASP-2 Ki) was below 500 nM; at mMASP-2 (read-out: mMASP-2 Ki), 2500 to 10000 nM; on human α-thrombin (read-out: Thrombin Ki), above 25 µM. The IC50 with Lectin Pathway is 500 to 5000 nM.
Consider `C[C@H](NC(=O)[C@H]1C[C@H](Cc2cccc3ccccc23)CN1)C(=O)NCc1cc(Cl)ccc1-n1cnnn1` [compound 1414, (2R,4S)—N—((S)-1-((5-Chloro-2-(1H-tetrazol-1-yl)benzyl)amino)-1-oxopropan-2-yl)-4-(naphthalen-1-ylmethyl)pyrrolidine-2-carboxamide Hydrochloride], for which the Ki was below 500 nM on MASP-2 (CCP1-CCP2-SP) (read-out: MASP-2 Ki), below 500 nM at mMASP-2 (read-out: mMASP-2 Ki) and below 0.5 µM on human α-thrombin (read-out: Thrombin Ki). At MASP-2 (CCP1-CCP2-SP), the “MASP-2 vs. thrombin selectivity” value is reported as “−− (<1.0-fold)”. The molecule also yielded an IC50 in the experiment with Lectin Pathway of 50 to 500 nM.
Take `C[C@H](NC(=O)[C@H]1C[C@H](Cc2cccc3ccccc23)CN1)C(=O)NCc1cnc2[nH]cc(Cl)c2c1` [compound 1415, (2R,4S)—N—((S)-1-(((3-Chloro-1H-pyrrolo[2,3-b]pyridin-5-yl)methyl)amino)-1-oxopropan-2-yl)-4-(naphthalen-1-ylmethyl)pyrrolidine-2-carboxamide Hydrochloride]: the Ki on MASP-2 (CCP1-CCP2-SP) (read-out: MASP-2 Ki) was below 500 nM; on mMASP-2 (read-out: mMASP-2 Ki) it was below 500 nM; at human α-thrombin (read-out: Thrombin Ki) it was below 0.5 µM. Besides, the “MASP-2 vs. thrombin selectivity” value on MASP-2 (CCP1-CCP2-SP) is on record as “* (≥1.0 to <5.0-fold)”. Also, in the experiment on Lectin Pathway, the IC50 is 50 to 500 nM.
`Cc1cc(C)cc(C[C@@H]2CN[C@@H](C(=O)N[C@@H](C)C(=O)NCc3cc(Cl)ccc3-n3cnnn3)C2)c1` [compound 1416, (2R,4S)—N—((S)-1-((5-Chloro-2-(1H-tetrazol-1-yl)benzyl)amino)-1-oxopropan-2-yl)-4-(3,5-dimethylbenzyl)pyrrolidine-2-carboxamide Hydrochloride]: the Ki was below 500 nM on MASP-2 (CCP1-CCP2-SP) (read-out: MASP-2 Ki), below 500 nM at mMASP-2 (read-out: mMASP-2 Ki) and below 0.5 µM on human α-thrombin (read-out: Thrombin Ki). Moreover, the “MASP-2 vs. thrombin selectivity” value on MASP-2 (CCP1-CCP2-SP) was “** (≥5.0 to <25-fold)”. The molecule also gave an IC50 in the experiment with Lectin Pathway of 50 to 500 nM.
Regarding `Cc1nc(N)ccc1CNC(=O)[C@H](C)NC(=O)[C@H]1C[C@H](Cc2ccc(Cl)c(Cl)c2)CN1` [compound 1422, (2R,4S)—N—((S)-1-(((6-Amino-2-methylpyridin-3-yl)methyl)amino)-1-oxopropan-2-yl)-4-(3,4-dichlorobenzyl)pyrrolidine-2-carboxamide Dihydrochloride], the Ki at MASP-2 (CCP1-CCP2-SP) (read-out: MASP-2 Ki) is below 500 nM; at mMASP-2 (read-out: mMASP-2 Ki), below 500 nM; at human α-thrombin (Thrombin Ki (μM)), 2.5 to 10 µM. The “MASP-2 vs. thrombin selectivity” value on MASP-2 (CCP1-CCP2-SP) was “**** (≥100-fold)”. The concentration for half-maximal inhibition (IC50) with Lectin Pathway was in the range of 500 to 5000 nM.
As to `Cc1nc(N)ccc1CNC(=O)[C@H](C)NC(=O)[C@H]1C[C@H](Cc2ccc(F)c3ccccc23)CN1` [compound 1423, (2R,4S)—N—((S)-1-(((6-Amino-2-methylpyridin-3-yl)methyl)amino)-1-oxopropan-2-yl)-4-((4-fluoronaphthalen-1-yl)methyl)pyrrolidine-2-carboxamide Dihydrochloride], the Ki on MASP-2 (CCP1-CCP2-SP) (read-out: MASP-2 Ki) was below 500 nM; at mMASP-2 (read-out: mMASP-2 Ki), below 500 nM; on human α-thrombin (Thrombin Ki (μM)), 2.5 to 10 µM. Besides, the “MASP-2 vs. thrombin selectivity” value at MASP-2 (CCP1-CCP2-SP) was “**** (≥100-fold)”. The same molecule came in with an IC50 in the experiment with Lectin Pathway of 50 to 500 nM.
Turning to `Cc1nc(N)ccc1CNC(=O)[C@H](C)NC(=O)[C@H]1C[C@H](Cc2ccc(C#N)cc2)CN1` [compound 1428, (2R,4S)—N—((S)-1-(((6-Amino-2-methylpyridin-3-yl)methyl)amino)-1-oxopropan-2-yl)-4-(4-cyanobenzyl)pyrrolidine-2-carboxamide Di-trifluoroacetate salt], the inhibition constant Ki is below 500 nM on MASP-2 (CCP1-CCP2-SP) (read-out: MASP-2 Ki), 500 to 2500 nM on mMASP-2 (read-out: mMASP-2 Ki) and 10 to 25 µM at human α-thrombin (Thrombin Ki (μM)). The “MASP-2 vs. thrombin selectivity” value on MASP-2 (CCP1-CCP2-SP) was “**** (≥100-fold)”. Moreover, in the experiment on Lectin Pathway, the IC50 was in the range of 500 to 5000 nM.
